Each block holds one compound with its values, some of them ahead of it.
How the values were obtained:
Format in all cases: physicochemical
[1] = Solubility of camptothecin in buffered aqueous phase at different pH values; conditions: 50 mM buffer, pH values below 7, within few days
Protocol: In this measurements, the solubility of camptothecin in aqueous media at different pH values is investigated. Pure camptothecin carboxylate was dissolved in a buffered (50 mM) aqueous phase at different pH values. At different times the solutions were centrifuged in order to remove camptothecin lactone crystals and the remaining concentration of the camptothecin in the supernatant was determined by UV-vis spectroscopy. […] These concentrations are too low for sufficient pharmaceutical efficacy.

[2] = Fraction of free (non-liposomally bound) CPT by Vivaspin 2 centrifugal filtration (MWCO 100 kDa) and UV-spectroscopy of the filtrate
Protocol: For direct comparison, CPT-carboxylate loaded liposomes were made by one of the techniques as given in the literature. Liposomes, loaded with CPT-carboxylate produced by the inventive method were prepared with the same total composition. The fraction of free (non-liposomally bound) CPT was determined in both cases. The free CPT was determined by centrifugation with the centrifugal concentrator Vivaspin 2 (Vivasciences). By a membrane of MWCO 100 kDa, the molecularly dissolved solutes were separated from the colloidal particles. The concentration of CPT in the filtrate was determined by UV-spectroscopy. All measurements with camptothecin were made with tris/HCI buffer, pH 7.5, 10 mM or 20 mM.
For the production of classically made formulations, the liposomes were formed directly in the aqueous solution of CPT carboxylate. By subsequent extrusion through membranes of 200 nm pore size homogeneous mixing and encapsulation was provided. The liposomes were made either by the ‘film method’ or by ‘ethanol injection’.
For the film method, a solution of lipids in chloroform is evaporated in a round bottom flask. A thin dry lipid film is formed at the inner wall of the flask. For the production of empty liposomes, the film is reconstituted with water or buffer solution. For the production of CPT loaded liposomes, the film is reconstituted with the CPT-carboxylate solution. […]
A lyophilisate of DOTAP liposomes (30 mM) was reconstituted with 2.088 ml of an aqueous solution of CPT carboxylate in water (1.4 mM). […] From the resulting preparation the fraction of free CPT was determined by centrifugation at different lipid concentrations.
1 ml of the DOTAP concentrate and 9 ml of CPT carboxylate solution, c=[…] were mixed. […] This preparation was diluted 1:10 1:25 and 1:50 and the fraction of free CPT was determined.
Liquid DOTAP formulations were exposed to CPT-carboxylate solutions for different time scales. […] After the given time, the fraction of free CPT was determined for different dilutions. […]

[3] = Stability of camptothecin carboxylate in concentrated alkaline media (HPLC)
Protocol: CPT-carboxylate can be obtained quantitatively from the lactone form of CPT by incubation the latter with at least an equimolar amount or an excess of base (e.g. NaOH or NH4OH). In the most simple approach CPT lactone is stirred with 1 M NaOH or NH4OH ovenight. Higher concentrations are favourable to accelerate the process.
Camptothecin in the lactone form was dissolved at a concentration of 4.6 μg/ml in concentrated ammonia (NH4OH) in order to obtain the carboxylate form. HPLC analysis was performed directly after dissolving the lactone and after 19 days.

[4] = Loading of aminofluorescein to DOTAP/DOPC liposomes, cross-flow filtration and UV-vis; conditions: DOTAP/DOPC 1:1 liposomes, after three cycles of filtration
Protocol: A 25 mM liposome formulation consisting of DOTAP/DOPC 1:1 in a solution of 5% glucose (w/v) was prepared. Briefly, a solution of DOTAP/DOPC in chloroform was put into a round bottom flask, and the solvent was evaporated in order to obtain a thin lipid film. The lipid film was reconstituted with the glucose solution to a total lipid concentration of 25 mM. The resulting multilamellar, polydisperse liposome suspension was extruded through a membrane of 200 nm pore size to obtain liposomes of uniform size.
10 ml of the liposome preparation and 10 ml of a 5 mM aqueous solution of aminofluorescein were combined.
Subsequently, the molecularly dissolved components were removed by cross-flow filtration, using a VIVAFLOW filtration kit, […] and a Masterflex easy lod pump, model.
20 ml of the preparation were diluted with 20 ml glucose. By the subsequent dialysis, part of the solvent and the molecularly dissolved (low molecular) compound penetrated across the separation membrane, while the liposomes were retained. Filtration was performed until the volume of the original solution was reduced to half of the start volume. Then the lost volume was substituted by glucose solution and the filtration was started again. Three filtration cycles were performed.
The concentration of aminofluorescein in the permeate and in the retained liposome suspension was determined by UV-vis spectroscopy.

Compound: CC[C@@]1(O)C(=O)OCc2c1cc1n(c2=O)Cc2cc3ccccc3nc2-1 [Camptothecin, 20(S)-Camptothecine (1H-Pyrano[3′,4′:6,7]indolizino[1,2-b]quinoline-3,14 (4H,12H)-dione, 4-ethyl-4-hydroxy-, (S)—)]
concentration of camptothecin remaining in supernatant [1]: very low values | loading of DOTAP liposomes with CPT at first time point after mixing ([2]; DOTAP 15 mM, CPT carboxylate 0.75 mM, original concentration, Tris/HCl 10 mM pH 7.5): loading reached saturation | time up to which fraction of loaded drug increased ([2]; diluted samples of DOTAP 15 mM/CPT 0.75 mM mixture, not stirred): up to 4 hours | degradation by the alkaline medium (HPLC) ([3]; 4.6 μg/ml in concentrated ammonia (NH4OH), after 19 days): no indication for a degradation

Compound: CCC(O)(C(=O)O)c1cc2n(c(=O)c1CO)Cc1cc3ccccc3nc1-2 (centres unmarked) [camptothecin carboxylate]
loading efficacy in DOTAP/DOPC liposomes ([2]; 30-100% DOTAP, total lipid 15 mM, CPT 0.75 mM, additional presence of DOPC): only slightly reduced | chemical degradation [3]: no indication for chemical degradation

amount retained with the liposome suspension ([4]; 5% glucose): 47 % of the original concentration | retained amount relative to expected value without any retention [4]: four times as high
Compound: aminofluorescein

Source: patent US20070148250A1, “Loading of a camptothecin drug into colloidal nanoparticles” (priority 2003, published 2007)
